Measured values as given in patent US20250346582A1, “SPLEEN TYROSINE KINASE INHIBITORS AND METHODS OF USE THEREOF” (THE BOARD OF TRUSTEES OF THE UNIVERSITY OF ILLINOIS, priority 2022, published 2025).

Legend:
HL60 cells = assay: XTT cell proliferation assay, HL60 cells; type: cell-based
Protocol: (§1) MV4-11 or HL-60 cells were seeded into a clear-bottom 96-well plate containing varying concentrations of inhibitors in the optimal growth media described above and the mixtures were incubated for 16 h. Cells were then treated with a mixture of XTT-labeling reagents and the electron coupling reagents according to the manufacturer's protocol (Roche). After 4 h, the absorbance values at 475 nm and at 660 nm were simultaneously measured by Synergy™ Neo spectrofluorometer at 25° C. Cells with the growth media was used for background correction.

Syk WT, E164D and E164Q [1] = target: T1, Syk WT, E164D and E164Q (Homo sapiens, UniProt P43405); assay: Phosphorylation in Syk-deficient MV4-11 cells re-expressing Syk WT or E164 mutants; type: cell-based; details: Syk WT added back to Syk-deficient AML cells; 5 μM overnight
T1 construct: When the full-length E164D and E164Q, respectively, were introduced into Syk-deficient MV4-11 cells; expressed in transfected cells; host or cells: entospletinib-resistant MV4-11 cells with shRNA knockdown of endogenous Syk
Protocol: (§2) FIGS. 5A-5B show cellular target validation of WC36. (a) Inhibition of Syk WT and WC36-binding site mutants by WC36. Entospletinib-resistant MV4-11 cells were treated with shRNA to suppress the expression of endogenous Syk and then transfected with exogenous Syk-WT and four Syk-[…] genes, respectively. These constructs harbor silent mutations to avoid gene suppression by Syk ShRNA. Phosphorylation of Syk and ERK1/2 in these cells was then monitored before and after treatment with 5 μM WC36 overnight. […] (b) Western blot analysis of WC36B-binding proteins captured by pull-down by streptavidin beads. Biotin was used as a negative control. GAPDH was used as a gel loading control.
(§3) Cells were seeded at a density of 3.0×10^5 cells/well prior to incubation with inhibitors. Cells were incubated with 1-5 μM of Syk inhibitors overnight and stimulated with different antibodies: IgG2 for AML cells, IgM for Raji B cells, and OKT3 (Biolegend) for Jurkat cells. The cells were lysed in NP40 lysis buffer (50 mM Tris, pH 7.5, 150 mM NaCl, 1 mM EDTA, 1% NP40, 10% glycerol, 10 mM NaF, 10 mM Na3VO4, and the protease inhibitor cocktail) at 4° C. and the cell debris was removed by centrifugation. Samples were analyzed by SDS-PAGE. […] The chemiluminescence intensity of protein bands in the gel was analyzed and documented by the Azure 500Q Imaging System.

Syk WT, E164D and E164Q [2] = assay: as above; type: cell-based, human; details: Syk-deficient MV4-11 cells with full-length E164D or E164Q; 5 μM overnight
Protocol: as §2, §3

MV4-11 cells = assay: Generation of drug-resistant MV4-11 cells under chronic treatment; type: cell-based; details: inhibitor increased from 0.5 to 5 μM over 10 weeks
Protocol: (§4) Then the concentration was maintained at 5 μM.

Syk-cSH2 E164Q = target: T2, Syk-cSH2 E164Q (Homo sapiens, UniProt P43405, E164Q); assay: Fluorescence quenching vesicle binding assay, Syk-cSH2 E164Q mutant; details: POPC/POPS/PIP3/dabsyl-PE vesicles
T2 construct: polyhistidine (N); made in house; host or cells: Escherichia coli BL21 (DE3) pLysS
Protocol: (§5) The membrane-binding assay is based on fluorescence quenching of EGFP fused to a SH2 domain by a dark quencher containing lipid, dabsyl-PE, incorporated in lipid vesicles. The plate reader assay was performed using the Synergy™ Neo spectrofluorometer at 25° C. Nontreated black polystyrene 96-well plates (Corning) were used. Protein (10-50 nM) with the increasing concentration of vesicles with a given lipid composition in 20 mM Tris buffer, pH 7.4, containing 0.16 M NaCl was added to each row of wells and the EGFP fluorescence emission at 516 nm was measured with excitation set at 485 nm. Z′ factor for the assay system was determined as described^74. Imax and IC50 values of inhibitors were determined using the equation, I=Imax/(1+IC50/[I]) where I and [I] indicate % inhibition and inhibitor concentration, respectively. The average and standard deviation values were obtained from triplicate determinations.

[3] = target: T3, scaffolding function of Syk (Homo sapiens, UniProt P43405); assay: Co-immunoprecipitation with Syk, naïve MV4-11 cells; type: cell-based; details: 5 μM
T3 construct: host or cells: MV4-11 AML cells (naive and entospletinib-resistant)
Protocol: (§6) MV-4-11 cells were collected by centrifugation, washed twice with phosphate phosphate-buffered saline (PBS) and resuspended in the immunoprecipitation (IP) buffer (50 mM HEPES, pH 7.4, 150 mM NaCl, 1 mM MgCl2, 1 mM EGTA, and 0.25 mM GTP) with 0.2-0.5% Triton X-100 and a protease inhibitor mix (Sigma-Aldrich). Lysates were prepared after 5 min of incubation on ice by repeated pipetting and centrifugation for 10 min at 12,000 g and at 4° C. For immunoprecipitation, the SYK-specific antibody was immobilized onto 100 μl Dynabeads/protein A (ThermoFisher) and the excess antibody was washed away by placing the tube in a DynaMag magnet and removing the supernatant. The resuspended beads were then incubated with the cell extract supernatant containing 500 μg of proteins for 1 h at 4° C. The immunoprecipitates were rinsed three times with the IP buffer and eluted with 30 μl of the sample buffer containing sodium dodecyl sulfate (SDS). For detection of proteins in total extracts (i.e., Input), 30 μg of the sample was loaded in each gel lane for western blot analysis.

Syk-cSH2 E164D = target: T4, Syk-cSH2 E164D (Homo sapiens, UniProt P43405, E164D); assay: Fluorescence quenching vesicle binding assay, Syk-cSH2 E164D mutant; details: up to 5 μM; POPC/POPS/PIP3/dabsyl-PE vesicles
T4 construct: polyhistidine (N); made in house; host or cells: Escherichia coli BL21 (DE3) pLysS
Protocol: as §5

[4] = test system: entospletinib-resistant MV4-11 cells; assay: XTT cell proliferation assay, entospletinib-resistant MV4-11 cells; type: cell-based; details: Homo sapiens, read-out: IC50, inhibition of proliferation (XTT assay)
Protocol: as §4, §1

[5] = target: T3, scaffolding function of Syk; assay: Co-immunoprecipitation with Syk, entospletinib-resistant MV4-11 cells; type: cell-based; details: 5 μM
Protocol: as §6

inhibition of membrane binding of Syk-cSH2 E164Q (Syk-cSH2 E164Q): refractory to WC36 inhibition
inhibition of membrane binding of Syk-cSH2 E164D (Syk-cSH2 E164D): not inhibited
IC50 [4]: 500 ± 10 nM
suppression of co-precipitation with Syk [5]: greatly suppressed co-precipitation
Compound: [N-]=[N+]=C(C(=O)OC1CCCCC1)C(Nc1ncccn1)c1c[nH]c2ccccc12 (racemic) [WC36, Cyclohexyl 2-diazo-3-(1H-indol-3-yl)-3-(pyrimidin-2-ylamino)propanoate]
inhibition of proliferation (XTT assay) (HL60 cells): potently suppressed the proliferation of HL60 cells
inhibition of phosphorylation of Syk WT and ERK1/2 (Syk WT, E164D and E164Q [1]): potently suppressed phosphorylation of Syk WT and ERK1/2
inhibition of phosphorylation of Syk E164D/E164Q and ERK1/2 (Syk WT, E164D and E164Q [2]): did not inhibit phosphorylation of these mutants and ERK1/2
development of acquired resistance (MV4-11 cells): could not develop resistance to WC36
suppression of the scaffolding function of Syk (co-precipitation) [3]: greatly suppressed the scaffolding function of Syk
